Key:
[1] = system: rat oligodendrocyte progenitor CG4 line; test: Differentiation assay on rat oligodendrocyte progenitor CG4 line (HCS, mCherry+); format: cell-based; conditions: secondary screen of 49 selected compounds, 1 μM, 5 days
From the text: Primary validation on CG4 line toxicity and differentiation. An innovative OPC line was developed for fast and reliable high content screening (HCS) of small compounds inducing oligodendrocyte differentiation. The line was genetically engineered by lentiviral transduction of rat CG4 cells (PubMed=1613821; DOI=10.1002/jnr.490310125; Louis J. C., Magal E., Muir D., Manthorpe M., Varon S.; CG-4, a new bipotential glial cell line from rat brain, is capable of differentiating in vitro into either mature oligodendrocytes or type-2 astrocytes. J. Neurosci. Res. 31:193-204(1992) to express mCherry fluorescent reporter (Evercooren, Anne & Avellana-Adalid, V. & Vitry, Sandrine & Nait-Oumesmar, Brahim & Lachapelle, Francois. (1997). Expansion of Oligodendrocyte Progenitors for Myelin Repair. 10.1007/978-1-4615-5949-8_21) in mature oligodendrocytes only, and EGFP at all stage of the oligodendroglial lineage: both the generation of mature oligodendrocytes (wmNl-mCherry) and the morphological changes associated with differentiation (CMV-EGFP) can be therefore monitored in a single assay. mCherry expression occurred only in O4+/GalC+ differentiated oligodendrocytes and GFP was ubiquitously expressed at all developmental stages. The line so obtained was validated using compounds with well-established effects on oligodendrocyte differentiation (cAMP and T3). Cell-based assay was standardized on the HCS platform (ArrayScanXTI, Brain and Spine Institute (Paris), validating the pro-differentiation effects of clemastine^27 and 9cis-retinoic acid.^28 For HCS validation of 274 compounds identified through in silico screen, double-fluo CG4 line cells were plated in 96 well-plates, 6500 cells/cm^2 and left for 24 h in proliferation. The other day, compounds were added (1 μM) for next 5 days of differentiation, with ⅔ medium changed after 3 days. 9-cis Retinoic Acid (9cis-RA; […]) served as a positive control, negative controls were basal (N1) medium and vehicle (basal+0.1% DMSO). Each compound was tested in triplicate and were imaged with ArrayScanXTI system (35 fields/well) after 5 days of differentiation.
FIG. 4 provides a schematic representation of High Content Screening (HCS) validation of the 274 compounds identified through in silico screening using CG4 line. […] In addition, the whole short list of 160 non-toxic compounds were screened using the CG4 high content phenotypic assay to further confirm the data from primary screening and to potentially select additional compounds with pro-myelinating activities. From this screening of the short list, 49 hit compounds were identified that increase differentiation either of CG4 cells or primary OPCs (FIG. 6).

[2] = system: human iPS-derived neuroprecursors; test: Differentiation of human iPS-derived neuroprecursors into MBP+ oligodendrocytes; format: cell-based; conditions: 1 μM in minimal medium, p<0.05
From the text: NPC bearing a doxycycline inducible polycistronic construct containing SOX10, OLIG2 and NKX6.2^29 in a human safe harbor (passages 10 to 25) were singularized on day −3 by treatment with Accutase and plated on Matrigel-coated 12-well plates at a density of 100.000 cells per well in N2B27-medium containing equal parts of neurobasal (Invitrogen) and DMEM-F12 medium (Invitrogen) with 1:100 B27 supplement lacking vitamin A (Invitrogen), 1:200 N2 supplement (Invitrogen), 1% penicillin/streptomycin/glutamine (PSG), 3 μM CHIR99021 (Axon Medchem), 150 μM ascorbic acid and 0.5 μM SAG. The next day medium was changed to N2B27-medium containing 1 μg/ml doxycycline. On DO medium was changed to glial-induction medium (GIM) consisting of DMEM-F12 with 1:100 B27 supplement lacking vitamin A, 1:200 N2 supplement, 1% PSG, 1 μM SAG, 10 ng/mL NT3 (Peprotech), 10 ng/mL IGF-I (Peprotech), 200 μM AA (Sigma), 1:1000 Trace Elements B (Corning). For full medium conditions 10 ng/ml T3 was added. On Day 2 medium was changed to glial-differentiation medium (GDM) comprising DMEM-F12 with 1:100 B27 supplement lacking vitamin A, 1:200 N2 supplement, 1% PSG, 100 μM dbCAMP (Sigma), 100 μM AA, 1:1000. For full medium conditions 60 ng/mL T3, Trace Elements B 10 ng/mL, IGF-I, 10 ng/mL and NT3 were added to the culture. GDM was changed every other day. On day 7 cells were detached by treatment with Accutase and re-plated on laminin coated 48-well plates at densities of 10.000-12.000 cells per well. After 24 h cells were treated in minimal medium with either vehicle alone [0.01% (vol/vol) DMSO] as a negative control, 60 ng/mL T3 as a positive control, or with a drug candidate dissolved in DMSO. Medium was changed every other day. On D16 doxycycline was removed from the medium. Cells were fixed on D21 and analyzed via immunocytochemistry.
Immunocytochemistry. Cells were initially fixed with 4% PFA treatment for 20 min, RT. Following three washes with PBS cells were incubated with blocking solution containing 5% normal goat serum (NGS) and 5% FCS (fetal calf serum) in PBS for 30 min at RT to prevent unspecific binding of the antibodies. To detect intracellular antigens cells were permeabilized by adding 0.5% Triton X-100 to the Blocking-solution. Cells treated with Triton X-100 were washed three times with PBS each time for 5 min at RT. Primary antibodies (rat anti-MBP,1:50, Abcam, AB7349) were applied overnight, 4° C., in blocking solution. The next day cells were washed 3 times with PBS at RT, and afterwards incubated with secondary antibodies (AF488 Alexa Fluor anti-rat (goat), 1:500, Jackson/Dianova, #112-545-167) diluted in PBS for 1 h at RT. Secondary antibodies were subsequently removed by washing 3 times with PBS. Afterwards PBS containing a Dapi staining for nuclei was added for 5 minutes and afterwards washed off with PBS. Cells were kept at 4° C. until imaging.
Imaging and evaluation. From each condition (triplicates) 20-30 pictures were taken randomly chosen by the Dapi-signal. Cell numbers were determined by using an ImageJ Macro to count the nuclei whereas MBP positive cells were subsequently counted manually in black and white images.
The effect on oligodendroglial differentiation of 32 compounds (“Front runners”) was tested. Induced pluripotent stem cells in which the transcription factors SOX10, OLIG2, NKX6.2 were inserted in a doxycycline inducible manner into a human safe harbor were differentiated into neural stem cells. Differentiation into oligodendrocytes was induced by addition of doxycycline. Cells were cultured either in a minimal medium (MM) (negative control) or in MM with the different compounds at a concentration of 1 μM. Addition of T3 to the minimal medium served as a positive control.

[3] = system: primary murine spinal cord culture; test: Myelinating cell cultures from primary murine spinal cord; format: cell-based, mouse; conditions: 1 μM
Experimental: Single cell suspensions are prepared from spinal cord of mouse embryos (E13) (adapted from Thomson, 2008) and 1.5×10^5 cells/well were plated into 96 well plates. Over time, these cultures mature and form axons, which later myelinate. Using spinal cord tissue facilitates the quantification of mature MBP+ oligodendrocytes and newly formed myelin by in-house high-content imaging system (Operetta High Content Imaging System, Perkin Elmer) with a 20× lens. From each well, 25 fields in a 5×5 matrix were scanned. Thirty-two “Front Runners” compounds were tested in replicates of five at 1 μM/DMSO, while T3, benzotropine and clemastine were used as positive controls, DMSO as negative/solvent control. Two experimental paradigms were applied: “Early treatment”: exposure to experimental agent from DIV7 to DIV14; “Late treatment”: exposure to experimental agent from DIV14-DIV21. On DIV21, cultures were fixed and stained (myelin: MBP, axons: NF200; nuclei: Hoechst). Imaging data were analysed using CellProfiler and in-house generated analysis pipeline.
Thirty-two “Front Runners” compounds were tested in replicates of five at 1 μM/DMSO, while T3, benztropine and clemastine were used as positive controls, DMSO as negative/solvent control. Two experimental paradigms were applied: “Early treatment”: exposure to experimental agent from DIV7 to DIV14; “Late treatment”: exposure to experimental agent from DIV14-DIV21. […] In “Late treatment” paradigm in myelin area evaluation were identified Vanoxerine, Roxadustat, Tamibarotene, Drinabant, Progesterone, Saracatinib. In quantification of myelinated axons were identified Vanoxerine, Drinabant, Roxadustat.

rat primary OPC cultures = test: Differentiation of rat primary OPC into MBP+ OLs; format: cell-based; conditions: 96 h, 4 days of differentiation, read-out: MBP+ differentiation (MBP+/SOX10+ OLs plus compounds / plus basal medium)
Experimental: Secondary validation on primary rat OPC differentiation. Re-validation of the best performing compounds promoting OPC differentiation (fold change >1.5) was performed on primary rat OPC cultures in 96 well-plate run in triplicates by triple immunolabeling for CNPase, MBP and SOX10 as a readout. Compounds at […] were added for 4 days of differentiation and then cell cultures were imaged with ArrayScanXTI platform, number of MBP+OLs were quantified by semi-automated software. Basal medium served as a negative control, 9 cis-RA ([…]) was a positive control.
Re-validation of the 49 compounds selected from the short list (160 compounds) using rat primary OPC cultures (compounds tested in triplicates in 3 independent experiments. The secondary validation screen of these compounds performed on rat primary OPC cultures selected 17 best lead compounds with a pro-differentiation activity (MBP+/SOX10+OLs plus compounds/MBP+SOX10+ plus basal medium fold increase) induced a strong differentiation into MBP+OLs (fold increase >1.6). Results are shown in FIG. 7.

| Structure (SMILES) | CG4 differentiation compared with 9cis-RA positive control [1] | differentiation into MBP+ oligodendrocytes [2] | differentiation into MBP+ oligodendrocytes ([2]; listed as Drinibant) | myelin area ([3]; Early treatment DIV7 to DIV14) | myelin area ([3]; Late treatment DIV14-DIV21) | quantification of myelinated axons ([3]; Late treatment DIV14-DIV21) | fold induction at 1 µM (rat primary OPC cultures) | quantification of myelinated axons ([3]; Early treatment DIV7 to DIV14) |
| --- | --- | --- | --- | --- | --- | --- | --- | --- |
| Cc1c(F)cccc1NC(=O)Nc1ccc(Cl)c(S(=O)(=O)[C@H]2CCCNC2)c1O [Danirixin] | promoting differentiation significantly higher than 9cis-RA positive control | promote significantly (p<0.05) the differentiation into MBP+ oligodendrocytes | – | – | – | – | – | – |
| CS(=O)(=O)N(c1cc(F)cc(F)c1)C1CN(C(c2ccc(Cl)cc2)c2ccc(Cl)cc2)C1 [Drinabant] | promoting differentiation significantly higher than 9cis-RA positive control | promote significantly the differentiation into MBP+ oligodendrocytes | promote significantly (p<0.05) the differentiation into MBP+ oligodendrocytes | identified | identified | identified | – | – |
| Cc1ccc(C(=O)Nc2ccc(Oc3cc4cnn(C)c4cc3-c3cn[nH]c3)c(F)c2)c(=O)n1-c1ccc(F)cc1 [Merestinib] | promoting differentiation significantly higher than 9cis-RA positive control | promote significantly (p<0.05) the differentiation into MBP+ oligodendrocytes | – | – | – | – | – | – |
| CCNC(=O)C1CC(F)(c2ccc(CN3CCCC3)c(F)c2)C1 (stereo not drawn) [PF-03654746] | promoting differentiation significantly higher than 9cis-RA positive control | promote significantly (p<0.05) the differentiation into MBP+ oligodendrocytes | – | identified | – | – | – | – |
| CCC/N=C1\S/C(=C\c2ccc(OC[C@H](O)CO)c(Cl)c2)C(=O)N1c1ccccc1C [Ponesimod] | promoting differentiation significantly higher than 9cis-RA positive control | promote significantly (p<0.05) the differentiation into MBP+ oligodendrocytes | – | identified | – | – | – | – |
| CNC(=O)c1cc(COc2nnc(Nc3ccc(Cl)cc3)c3ccoc23)ccn1 [Telatinib] | promoting differentiation significantly higher than 9cis-RA positive control | promote significantly (p<0.05) the differentiation into MBP+ oligodendrocytes | – | – | – | – | > 1.6 | – |
| Fc1ccc(C(OCCN2CCN(CCCc3ccccc3)CC2)c2ccc(F)cc2)cc1 [Vanoxerine] | promoting differentiation significantly higher than 9cis-RA positive control | – | – | identified | identified | identified | – | identified |

— patent publication US20240148745A1, “COMPOUNDS FOR USE IN PROGRESSIVE MULTIPLE SCLEROSIS” (FONDAZIONE CENTRO SAN RAFFAELE, priority 2021, published 2024)
